Measured values as given in US7951800B2, “Anti-infective agents” (Abbott Laboratories, Inc., priority 2006, dated 2011).

Legend:
[1] = liver concentrations after oral dosing in rats; assay type: in vivo, Male Sprague-Dawley derived rats; conditions: rat; for concentration at 1 h / concentration at 12 h / concentration at 24 h: male, Sprague-Dawley, liver, 5 mg/kg oral; for EC50 multiple: ratio of post 24-hour liver concentration over EC50 value: EC50 from HCV replicon assays
Method: Compounds I, II and III were prepared as a solution in a DMSO: PEG-400 vehicle at a concentration of 5 mg/mL shortly before oral dosing. Male Sprague-Dawley derived rats, weighing 250-350 grams, were obtained from Charles River Laboratories, Inc. (Wilmington, Mass.). The animals were fasted overnight prior to dosing and throughout the study period, but were allowed water ad libitum. Animals were allowed chow ad libitum post 12 hr. Each study used a group of 3 rats. Each rat received a 5 mg/kg (1 mL/kg) oral dose of compound I, II or III administered by gavage. At selected time points after dosing, groups of three rats were euthanized with CO2 and exsanguinated by cardiac puncture. The entire liver tissue from each animal was removed and placed in a labeled plastic container. Groups of rats were sacrificed 1, 12 and 24 hours after drug administration. The liver samples were stored on ice (about 4° C.), and then assayed for the concentration of each compound using high performance liquid chromatographic procedures.

[2] = tested on: HCV 1b-N replicon cells; test: passage of HCV 1b-N replicon cells with compounds alone or in combination, absence of neomycin; assay type: cell-based; conditions: individual compounds or agents at 10 to 20-fold above their respective EC50
Method: The effect of compound I on HCV replicon was evaluated alone or in combination with other anti-HCV agents. […] The EC50 values represent the 50% inhibitory concentrations of these compounds/agents in replicon cell assays.

[3] = tested on: HCV replicon; test: HCV replicon assays; assay type: cell-based
Method: The 50% inhibitory concentration of an HCV inhibitor (EC50) can also be evaluated using HCV replicon assays as described in Ikeda et al., J. VIROL., 76:2997-3006 (2002), and Blight et al., SCIENCE, 290:1972-1974 (2000), with the following modifications. Replicon cells are plated at 3×10^3 cells per well in 96-well plate in DMEM medium containing 5% fetal calf serum. At day 1, culture medium is removed and replaced with fresh medium containing eight serial 2-fold dilutions of the compound of interest. The final concentration of DMSO in medium is 0.5%. The untreated control culture is treated in an identical manner except no inhibitor is added to the medium. Plates are incubated in a CO2 incubator at 37° C. On Day 4, 100 μl lysis buffer (RTL) (Qiagen) is added to each well after removal of culture medium. RNA is purified according to manufacturer's recommendations (Qiagen RNAeasy) and eluted in 200 μl of water. The HCV RNA level is quantified from a portion (5 μl out of 200 μl) of the purified RNA by real-time RT-PCR method. The primers and probe are derived from specific sequence in the 5′UTR region. RT-PCR reaction is performed at 48° C. for 30 min, followed by 40 cycles set to 95° C., 15 s; 54° C., 30 s; and 72° C., 40 s. […]

CS(=O)(=O)NCc1csc2c1S(=O)(=O)N=C(c1c(O)c3ccccc3n(NCC3CC3)c1=O)N2 [compound II, N-[(3-{1-[(cyclopropylmethyl)amino]-4-hydroxy-2-oxo-1,2-dihydroquinolin-3-yl}-1,1-dioxido-4H-thieno[2,3-e][1,2,4]thiadiazin-7-yl)methyl]methanesulfonamide]
concentration at 1 h [1]: 18900 ng/g
concentration at 12 h [1]: 7920 ng/g
concentration at 24 h [1]: 120 ng/g
EC50 multiple: ratio of post 24-hour liver concentration over EC50 value ([1]; 24 hours after oral dosing): significantly lower than that of compound I

CCC[C@H](NC(=O)C1[C@H]2CCC[C@H]2CN1C(=O)[C@@H](NC(=O)[C@@H](NC(=O)c1cnccn1)C1CCCCC1)C(C)(C)C)C(=O)C(=O)NC1CC1 (stereo partly shown) [compound VX-950]
HCV RNA levels during treatment [2]: significantly reduced
elimination of HCV RNA from replicon cells [2]: none of them eliminated the HCV RNA

CS(=O)(=O)Nc1ccc2c(c1)S(=O)(=O)N=C(c1c(O)c3ccccc3n(NC3CCC3)c1=O)N2 [compound III, N-{3-[1-(cyclobutylamino)-4-hydroxy-2-oxo-1,2-dihydroquinolin-3-yl]-1,1-dioxido-4H-1,2,4-benzothiadiazin-7-yl}methanesulfonamide]
concentration at 1 h [1]: 8790 ng/g
concentration at 12 h [1]: 4140 ng/g
concentration at 24 h [1]: 280 ng/g
EC50 multiple: ratio of post 24-hour liver concentration over EC50 value ([1]; 24 hours after oral dosing): significantly lower than that of compound I

CS(=O)(=O)NCc1csc2c1S(=O)(=O)N=C(c1c(O)c3ccccc3n(NC3CCC3)c1=O)N2 [compound I, N-[(3-{1-[(cyclobutyl)amino]-4-hydroxy-2-oxo-1,2-dihydro-quinolin-3-yl}-1,1-dioxo-1,4-dihydro-1λ^6-thieno[2,3-e][1,2,4]thiadiazin-7-yl)methyl]methanesulfonamide]
higher potency in the inhibition of HCV replication as compared to 1-Benzyl-4-hydroxy-3-[7-(hydroxymethyl)-1,1-dioxido-4H-thieno[2,3-e][1,2,4]thiadiazin-3-yl]quinolin-2(1H)-one [3]: about 100 fold
EC50 ([3]; Hepatitis C virus, read-out: 50% inhibitory concentration (EC50), HCV replicon assays): ~2.5 nM
concentration at 1 h [1]: 18700 ng/g
concentration at 12 h [1]: 19200 ng/g
concentration at 24 h [1]: 2420 ng/g
liver concentration of compound I relative to those of compounds II and III ([1]; 24 hours after oral dosing): 8-20 times
EC50 multiple: ratio of post 24-hour liver concentration over EC50 value ([1]; 24 hours after oral dosing): more than 1.800 fold
HCV RNA levels during treatment [2]: significantly reduced
elimination of HCV RNA from replicon cells [2]: none of them eliminated the HCV RNA
